In US20090062294A1, “HETEROARYL-SUBSTITUTED UREA MODULATORS OF FATTY ACID AMIDE HYDROLASE” (priority 2007, published 2009) one finds IC50 data, which are given here for 20 compounds.

Structures can show the parent of a compound that is named as a salt.

The first assay deals with T1, FAAH (Homo sapiens, UniProt O00519).
T1 sequence (O00519 1-579): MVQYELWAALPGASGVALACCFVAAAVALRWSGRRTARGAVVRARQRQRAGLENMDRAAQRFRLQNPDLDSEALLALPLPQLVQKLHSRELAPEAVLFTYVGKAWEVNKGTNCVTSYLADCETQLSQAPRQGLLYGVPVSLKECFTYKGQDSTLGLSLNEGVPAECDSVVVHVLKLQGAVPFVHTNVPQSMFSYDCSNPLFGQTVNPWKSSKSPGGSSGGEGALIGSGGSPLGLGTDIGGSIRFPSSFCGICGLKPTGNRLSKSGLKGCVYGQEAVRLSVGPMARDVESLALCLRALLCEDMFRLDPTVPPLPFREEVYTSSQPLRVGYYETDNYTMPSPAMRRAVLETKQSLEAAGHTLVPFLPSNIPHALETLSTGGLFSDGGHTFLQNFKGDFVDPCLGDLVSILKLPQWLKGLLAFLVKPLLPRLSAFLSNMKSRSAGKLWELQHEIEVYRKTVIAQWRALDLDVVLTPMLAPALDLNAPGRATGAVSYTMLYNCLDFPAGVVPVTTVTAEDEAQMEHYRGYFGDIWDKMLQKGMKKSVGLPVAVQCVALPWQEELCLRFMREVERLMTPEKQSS
The experiment in a line: Assay Method 1: FAAH assay, 3H-anandamide hydrolysis in homogenate of T84 cells or SK-N-MC cells transfected with human FAAH. The class given is biochemical. As to conditions: average of results, > = solubility limit or highest concentration tested. As for the experimental part:
A. Transfection of Cells with Human FAAH
(§1) A 10-cm tissue culture dish with a confluent monolayer of SK—N-MC cells was split 2 days (d) prior to transfection. Using sterile technique, the media was removed and the cells were detached from the dish by the addition of trypsin. One fifth of the cells were then placed onto a new 10-cm dish. Cells were grown in a 37° C. incubator with 5% CO2 in Minimal Essential Media Eagle with 10% Fetal Bovine Serum. After 2 d, cells were approximately 80% confluent. These cells were removed from the dish with trypsin and pelleted in a clinical centrifuge. The pellet was re-suspended in 400 μL complete media and transferred to an electroporation cuvette with a 0.4 cm gap between the electrodes. Supercoiled human FAAH cDNA (1 μg) was added to the cells and mixed. The voltage for the electroporation was set at 0.25 kV, and the capacitance was set at 960 μF. After electroporation, the cells were diluted into complete media (10 mL) and plated onto four 10-cm dishes. Because of the variability in the efficiency of electroporation, four different concentrations of cells were plated. The ratios used were 1:20, 1:10, and 1:5, with the remainder of the cells being added to the fourth dish. The cells were allowed to recover for 24 h before adding the selection media (complete media with 600 μg/mL G418). After 10 d, dishes were analyzed for surviving colonies of cells. Dishes with well-isolated colonies were used. Cells from individual colonies were isolated and tested.
(§2) T84 frozen cell pellets or transfected SK—N-MC cells (contents of 1×15 cm culture dishes) were homogenized in 50 mL of FAAH assay buffer (125 mM Tris, 1 mM EDTA, 0.2% Glycerol, 0.02% Triton X-100, 0.4 mM Hepes, pH 9). The assay mixture consisted of 50 μL of the cell homogenate, 10 μL of the test compound, and 40 μL of anandamide [1-^3H-ethanolamine] (^3H-AEA, Perkin-Elmer, 10.3 Ci/mmol), which was added last, for a final tracer concentration of 80 nM. The reaction mixture was incubated at rt for 1 h. During the incubation, 96-well Multiscreen filter plates (catalog number MAFCNOB50; Millipore, Bedford, Mass., USA) were loaded with 25 μL of activated charcoal (Multiscreen column loader, catalog number MACL09625, Millipore) and washed once with 100 μL of MeOH. Also during the incubation, 96-well DYNEX MicroLite plates (catalog number NL510410) were loaded with 100 μL of MicroScint40 (catalog number 6013641, Packard Bioscience, Meriden, Conn., USA). After the 1 h incubation, 60 μL of the reaction mixture were transferred to the charcoal plates, which were then assembled on top of the DYNEX plates using Centrifuge Alignment Frames (catalog number MACF09604, Millipore). The unbound labeled ethanolamine was centrifuged through to the bottom plate (5 min at 2000 rpm), which was preloaded with the scintillant, as described above. The plates were sealed and left at rt for 1 h before counting on a Hewlett Packard TopCount.
(§3) Compounds were tested in free base, hydrochloride salt, and/or trifluoroacetic acid salt forms.
Usually IC50 stands for the midpoint of a concentration-inhibition curve. High values mean weaker potency in that assay, low ones greater potency in that assay. Regarding `O=C(Nc1noc2ccccc12)N1CCN(Cc2ccc3c(c2)OC(F)(F)O3)CC1` [Example 1, 4-(2,2-Difluoro-benzo[1,3]dioxol-5-ylmethyl)-piperazine-1-carboxylic acid benzo[d]isoxazol-3-ylamide trifluoroacetic acid salt], half-maximal inhibition (IC50) required 103 nM.
Still for that read-out and setting: the figure for `O=C(Nc1nc(-c2ccccc2)ns1)N1CCN(Cc2ccc3c(c2)OC(F)(F)O3)CC1` [Example 2, 4-(2,2-Difluoro-benzo[1,3]dioxol-5-ylmethyl)-piperazine-1-carboxylic acid (3-phenyl-[1,2,4]thiadiazol-5-yl)-amide trifluoroacetic acid salt] is 212 nM; for `O=C(Nc1nnn[nH]1)N1CCN(Cc2ccc3c(c2)OC(F)(F)O3)CC1` [Example 3, 4-(2,2-Difluoro-benzo[1,3]dioxol-5-ylmethyl)-piperazine-1-carboxylic acid (1H-tetrazol-5-yl)-amide trifluoroacetic acid salt] it is 1200 nM; for `O=C(Nc1noc2ccccc12)N1CCN(Cc2cccc(Oc3ncccn3)c2)CC1` [Example 95, 4-[3-(Pyrimidin-2-yloxy)-benzyl]-piperazine-1-carboxylic acid benzo[d]isoxazol-3-ylamide] it is 2800 nM.
The same measure, in the same setting: as for `O=C(Nc1noc2ccccc12)N1CCN(Cc2ccc3cn[nH]c3c2)CC1` [Example 101, N-1,2-Benzisoxazol-3-yl-4-(1H-indazol-6-ylmethyl)piperazine-1-carboxamide], the figure is 6300 nM; as for `O=C(Nc1ccon1)N1CCN(Cc2ccc(OCc3ccccc3)cc2)CC1` [Example 135, 4-[4-(Benzyloxy)benzyl]-N-isoxazol-3-ylpiperazine-1-carboxamide], 825 nM; as for `O=C(Nc1ccon1)N1CCN(Cc2cc3ccccc3s2)CC1` [Example 142, 4-(1-Benzothiophen-2-ylmethyl)-N-isoxazol-3-ylpiperazine-1-carboxamide], 2000 nM.
With `O=C(Nc1ccon1)N1CCN(Cc2ccc3ccccc3n2)CC1` [Example 146, 4-Quinolin-2-ylmethyl-piperazine-1-carboxylic acid isoxazol-3-ylamide], the IC50 was found to be 3000 nM.
For the compound `O=C(Nc1ccon1)N1CCN(Cc2ccc(Br)c(Br)c2)CC1` [Example 154, 4-(3,4-Dibromobenzyl)-N-isoxazol-3-ylpiperazine-1-carboxamide], 1300 nM corresponded to half-maximal inhibition (IC50).
Same read-out and setting: as for `O=C(Nc1nn[nH]n1)N1CCN(Cc2ccc3c(c2)OCO3)CC1` [Example 180, 4-Benzo[1,3]dioxol-5-ylmethyl-piperazine-1-carboxylic acid (2H-tetrazol-5-yl)-amide], the figure is > 10000 nM; as for `O=C(Nc1cnccn1)N1CCN(Cc2ccc(OCc3ccccc3)cc2)CC1` [Example 219, 4-[4-(Benzyloxy)benzyl]-N-pyrazin-2-ylpiperazine-1-carboxamide], 230 nM; as for `O=C(Nc1cnccn1)N1CCN(Cc2cccc(OCc3ccccc3)c2)CC1` [Example 223, 4-[3-(Benzyloxy)benzyl]-N-pyrazin-2-ylpiperazine-1-carboxamide], 180 nM.

For a further assay, the target named is T2, rat FAAH (Rattus norvegicus, UniProt P97612).
T2 sequence (P97612 1-579): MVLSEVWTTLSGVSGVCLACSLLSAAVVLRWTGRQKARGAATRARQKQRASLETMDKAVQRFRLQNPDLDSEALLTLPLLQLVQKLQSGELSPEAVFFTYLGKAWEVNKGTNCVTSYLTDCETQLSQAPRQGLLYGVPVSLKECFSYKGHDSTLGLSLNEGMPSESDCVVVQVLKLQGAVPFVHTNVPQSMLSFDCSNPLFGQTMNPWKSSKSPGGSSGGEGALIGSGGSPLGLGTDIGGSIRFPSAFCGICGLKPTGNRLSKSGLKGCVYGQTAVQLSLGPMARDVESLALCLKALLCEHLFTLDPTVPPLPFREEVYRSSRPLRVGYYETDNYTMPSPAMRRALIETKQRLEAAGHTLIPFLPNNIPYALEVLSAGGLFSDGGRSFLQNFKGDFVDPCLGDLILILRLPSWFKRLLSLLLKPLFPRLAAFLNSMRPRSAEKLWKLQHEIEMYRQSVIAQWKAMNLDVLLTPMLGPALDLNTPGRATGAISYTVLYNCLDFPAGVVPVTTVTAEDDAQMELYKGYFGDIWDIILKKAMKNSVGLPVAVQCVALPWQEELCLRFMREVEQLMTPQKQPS
The experiment in a line: Assay Method 2: FAAH assay, 3H-anandamide hydrolysis in homogenate of SK-N-MC cells transfected with rat FAAH. The class given is biochemical. As to conditions: average of results, > = solubility limit or highest concentration tested. As for the experimental part: A. Transfection of Cells with Rat FAAH
as §1, with “rat” for “human”
as §2, §3
Consider `O=C(Nc1noc2ccccc12)N1CCN(Cc2ccc3c(c2)OC(F)(F)O3)CC1` [Example 1, 4-(2,2-Difluoro-benzo[1,3]dioxol-5-ylmethyl)-piperazine-1-carboxylic acid benzo[d]isoxazol-3-ylamide trifluoroacetic acid salt], for which the half-inhibitory concentration (IC50) came out at 337 nM.
The same measure, in the same setting: as for `O=C(Nc1nnn[nH]1)N1CCN(Cc2ccc3c(c2)OC(F)(F)O3)CC1` [Example 3, 4-(2,2-Difluoro-benzo[1,3]dioxol-5-ylmethyl)-piperazine-1-carboxylic acid (1H-tetrazol-5-yl)-amide trifluoroacetic acid salt], the figure is 9000 nM.
Take `O=C(Nc1ccc2ncccc2n1)N1CCC(Cc2ccc3ccccc3c2)CC1` [Example 17, 4-Naphthalen-2-ylmethyl-piperidine-1-carboxylic acid [1,5]naphthyridin-2-ylamide trifluoroacetic acid salt]: the concentration for half-maximal inhibition (IC50) was found to be 517 nM.
Same read-out and setting: the figure for `O=C(Nc1ccc(Cl)nn1)N1CCC(Cc2ccc(F)cc2)CC1` [Example 23, 4-(4-Fluoro-benzyl)-piperidine-1-carboxylic acid (6-chloro-pyridazin-3-yl)-amide] is 5000 nM.
Same read-out and setting: as for `O=C(Nc1ccon1)N1CCC(Cc2ccc(F)cc2)CC1` [Example 24, 4-(4-Fluoro-benzyl)-piperidine-1-carboxylic acid isoxazol-3-ylamide], the figure is 4000 nM.
The same measure, in the same setting: as for `O=C(Nc1cccc2nsnc12)N1CCN(Cc2cccc(Oc3ccc(Cl)cc3)c2)CC1` [Example 37, 4-[3-(4-Chloro-phenoxy)-benzyl]-piperazine-1-carboxylic acid benzo[1,2,5]thiadiazol-4-ylamide trifluoroacetic acid salt], the figure is 6 nM.
`O=C(Nc1cc[nH]n1)N1CCN(Cc2cccc(Oc3ccc(Cl)cc3)c2)CC1` [Example 53, 4-[3-(4-Chloro-phenoxy)-benzyl]-piperazine-1-carboxylic acid (1H-pyrazol-3-yl)-amide trifluoroacetic acid salt] registered an IC50 of 30 nM.
Still for that read-out and setting: the figure for `O=C(Nc1nnn[nH]1)N1CCN(Cc2cccc(Oc3ccc(Cl)cc3)c2)CC1` [Example 57, 4-[3-(4-Chloro-phenoxy)-benzyl]-piperazine-1-carboxylic acid (1H-tetrazol-5-yl)-amide trifluoroacetic acid salt] is 167 nM; for `O=C(Nc1ccon1)N1CCN(Cc2cnc3ccccc3c2)CC1` [Example 147, 4-Quinolin-3-ylmethyl-piperazine-1-carboxylic acid isoxazol-3-ylamide] it is > 10000 nM.
Turning to `O=C(Nc1nnn[nH]1)N1CCN(Cc2ccc3ccccc3n2)CC1` [Example 175, 4-(Quinolin-2-ylmethyl)-N-1H-tetrazol-5-ylpiperazine-1-carboxamide], it took 1000 nM to reach half-maximal inhibition (IC50).
